Laboratory results taken from patent publication US20190117653A1, “SYSTEMS AND METHODS FOR TREATING BACTERIAL INFECTION” (priority 2016, published 2019).
≈ marks a conversion by molar mass, not a printed value. Counter-ions that a name gives are not always drawn. Like-named read-outs stand apart in the source and are kept apart here.

Tests used:
[1] = pH value of a 1% solution in water; type: physicochemical
Source text: The molecular formulae for iclaprim and iclaprim mesylate are […] (base) and C20H26N4O6S (mesylate), and their relative molecular masses are 354.41 (base) or 450.52 (mesylate). […] One skilled in the art can readily obtain iclaprim or iclaprim mesylate, and synthesis of these compounds is described in U.S. Pat. No. 5,773,446, the entire disclosure of which is herein incorporated by reference.

mouse = assay: acute IV toxicity in the mouse (lowest lethal dose); type: in vivo
female mini-pigs = details: minipig, in vivo
male and female rats = details: both, rat, in vivo, 4 weeks
Method: A repeated-dose, 4-week toxicity study was conducted in male and female rats, where single, daily IV bolus doses up to 60 mg/kg were given. […] A 28-day toxicity study was also conducted in male and female marmosets, where iclaprim mesylate was infused intravenously over a 20-minute interval.

S. aureus strain AH1252 = assay: neutropenic rat lung infection model; type: in vivo, Staphylococcus aureus
Method: S. aureus strain AH1252, a thymidine knockout of the MRSA wild type AW6 strain, was utilized for this study. The bacterial strain was diluted in a 2% alginate buffer, which was added dropwise in a ratio of 1:5 into […] to form alginate beads. The alginate beads reduce the efficacy of bacterial clearance similar to that seen in the cystic fibrosis population. A 5.25×10^4 bacterial inoculum was administered to groups of 9 rats, intratracheally, with prepared alginate bacteria suspensions, under isoflurane anesthesia. […] Twelve hours after the last treatment, rats were euthanized and lungs collected for CFU determination.

[2] = system: nosocomial pneumonia suspected or confirmed to be caused by Gram-positive pathogens; assay: Phase 2 study in nosocomial pneumonia, iclaprim versus vancomycin; type: in vivo, human
Source text: This MIC effect of surfactant on daptomycin activity has been reported to be mediated by binding of surfactant components to specific structures present on antibiotics, such as the lipophilic side-chain of daptomycin (Silverman et al., 2005). […] Collectively, the current in vitro study and a previous Phase 2 study support that iclaprim could be a potential treatment for pneumonia, including nosocomial pneumonia caused by susceptible and multidrug resistant Gram-positive bacteria.

E. faecalis ATCC 33186 = assay: MIC with/without bovine pulmonary surfactant; type: cell-based; details: Enterococcus faecalis, ATCC33186, 2.5% v/v BPS, read-out: MIC, Resazurin: +BPS
Method: (§1) Antibacterial susceptibility testing was measured by JMI Labs (North Liberty, Iowa, USA). […] These clinical isolates were collected from US (n=4), Mexico (n=2), and Italy (n=1). Susceptibility testing was performed by broth microdilution in accordance with the Clinical and Laboratory and Standards Institute (CLSI) guidelines M07-A10 (2015) and the standard operating procedures at JMI laboratories. Minimum inhibitory concentrations (MICS) were based on CLSI criteria (2015). There are no published breakpoints for iclaprim. E. coli, K. pneumoniae, M. catarrhalis, E. faecalis, and S. aureus were tested in cation-adjusted Mueller-Hinton broth (CA-MHB). S. pneumoniae were tested in CA-MHB supplemented with 2.5-5% lysed horse blood, and H. influenza were tested in Haemophilus test medium. Quality control and interpretation of results were performed in accordance with CLSI M100-S26 (2016) methods. QC ranges for iclaprim were those approved by CLSI and published in M100-S26 (2016). Iclaprim and comparator antibiotic MIC results were within the CLSI published ranges against E. coli ATCC 25922, E. faecalis ATCC 29212, E. faecalis ATCC 33186, H. influenzae ATCC 49247, K. pneumoniae ATCC 700603 (ESBL phenotype), S. aureus ATCC 29213, and S. pneumoniae ATCC 49619. Isolates were tested with MIC panels (ThermoFisher Scientific, Cleveland, Ohio, USA) of comparator antibiotics (daptomycin and levofloxacin).
(§2) Because bovine pulmonary surfactant can introduce cloudiness to the MIC testing media, antimicrobial growth inhibition was also evaluated using the colorimetric metabolic indicator resazurin (Camlab Ltd., Cambridge, UK). […] S. pneumoniae panels were omitted from resazurin analysis because the color change was obscured by the lysed horse blood present in the test medium. Growth inhibition was then evaluated as a visible color change from blue (no growth) to pink (robust growth) and recorded as a MIC1z value.
(§3) The MICs of iclaprim, levofloxacin, and daptomycin were determined against Gram-positive and Gram-negative isolates.
(§4) A new vial of bovine pulmonary surfactant (BPS; Survanta®; Abbott Laboratories, Columbus, Ohio) was utilized for each independent experiment. Each vial was mixed thoroughly and a 100 μL aliquot was spread on an agar plate, which was incubated overnight to confirm sterility. […] The concentration of surfactant was expressed in terms of percent volume of Survanta® suspension, which consisted of phospholipid (25 mg/mL) and surfactant proteins (<1 mg/mL) in 0.9% sodium chloride solution (Goerke, 1998). MICs of daptomycin were determined in CAMHB with the Ca^2+ content adjusted to 50 mg/L.

E. faecalis ATCC 29212 = assay: MIC with/without bovine pulmonary surfactant; type: cell-based; details: Enterococcus faecalis, ATCC29212, 2.5% v/v BPS, read-out: MIC, Resazurin: +BPS
Method: as §1, §2, §3, §4

[3] = system: M. catarrhalis Clinical Isolate 893806; assay: MIC with/without bovine pulmonary surfactant; type: cell-based; details: Moraxella catarrhalis, 2.5% v/v BPS, read-out: MIC, Resazurin: +BPS
Method: as §1, §2, §3, §4

S. aureus ATCC 29213 = assay: MIC with/without bovine pulmonary surfactant; type: cell-based; details: Staphylococcus aureus
Method: as §1, §2, §3, §4

[4] = system: S. aureus Clinical Isolate 825189; assay: MIC with/without bovine pulmonary surfactant; type: cell-based; details: Staphylococcus aureus
Method: as §1, §2, §3, §4

[5] = system: M. catarrhalis Clinical Isolate 893807; assay: MIC with/without bovine pulmonary surfactant; type: cell-based; details: Moraxella catarrhalis, 2.5% v/v BPS, read-out: MIC, Resazurin: +BPS
Method: as §1, §2, §3, §4

E. coli ATCC 25922 = assay: MIC with/without bovine pulmonary surfactant; type: cell-based; details: Escherichia coli
Method: as §1, §2, §3, §4

[6] = ATCC29213, 2.5% v/v BPS, read-out: MIC, Resazurin: +BPS
[7] = ATCC29213, no BPS, read-out: MIC, CLSI
[8] = ATCC29213, no BPS, read-out: MIC, Resazurin
[9] = 2.5% v/v BPS, read-out: MIC, Resazurin: +BPS
[10] = no BPS, read-out: MIC, Resazurin

## COc1cc(Cc2cnc(N)nc2N)c2c(c1OC)OC(C1CC1)C=C2 (racemic) [iclaprim mesylate, 5-[(2RS)-2-cyclopropyl-7,8-dimethoxy-2Hchromen-5-ylmethyl] pyrimidine-2,4-diamine methanesulfonate]
[1]
  pH value: 4.2
mouse
  HED of lowest lethal IV dose: 6.1 mg/kg
  lowest lethal IV dose: 75 mg/kg
Female mini-pigs
  HED of maximum tolerated single IV dose: 14.6 mg/kg
  maximum tolerated single IV dose: 20 mg/kg
Male and female rats
  HED of NOAEL: 3.9 mg/kg/day
  dosage with histopathological changes at the injection sites: ≥ 10 mg/kg/day

## CN[C@H](CC(C)C)C(=O)N[C@H]1C(=O)N[C@@H](CC(N)=O)C(=O)N[C@H]2C(=O)N[C@H]3C(=O)N[C@H](C(=O)N[C@H](C(=O)O)c4cc(O)cc(O)c4-c4cc3ccc4O)[C@H](O)c3ccc(c(Cl)c3)Oc3cc2cc(c3O[C@@H]2O[C@H](CO)[C@@H](O)[C@H](O)[C@H]2O[C@H]2C[C@](C)(N)[C@H](O)[C@H](C)O2)Oc2ccc(cc2Cl)[C@H]1O [Vancomycin, vancomycin, reference compound]
S. aureus strain AH1252; 50 mg/kg SC/BID
  72 hour lungs log10CFU/Lung (CFU/gram of lung): 5.30
  Change in CFUs from 2 hr. infection controls: 2.18 log 10 CFU
  Change in CFUs from 72 hr. infection controls: −3.38 log 10 CFU
S. aureus strain AH1252; 50 mg/kg SC/BID (100 mg/kg/day) 3 days
  Survival >60 hrs: 8/9
S. aureus strain AH1252; vancomycin 50 mg/kg SC/BID
  CFU reduction from the 72 hour infection controls: 3.38 log 10 CFU
[2]; vancomycin 1 g IV q12h, test of cure visit (12 of 23)
  cure rate, intent-to-treat population: 52.2%
[2]; vancomycin (5 of 23)
  death rate within 28 days of the start of treatment: 21.7%

## CCCCCCCCCC(=O)N[C@@H](Cc1c[nH]c2ccccc12)C(=O)N[C@H](CC(N)=O)C(=O)N[C@@H](CC(=O)O)C(=O)N[C@@H]1C(=O)NCC(=O)N[C@@H](CCCN)C(=O)N[C@@H](CC(=O)O)C(=O)N[C@H](C)C(=O)N[C@@H](CC(=O)O)C(=O)NCC(=O)N[C@H](CO)C(=O)N[C@@H]([C@H](C)CC(=O)O)C(=O)N[C@@H](CC(=O)c2ccccc2N)C(=O)O[C@@H]1C [daptomycin]
E. faecalis ATCC 33186
  MIC: > 16 µg/mL
E. faecalis ATCC 29212
  MIC: > 16 µg/mL
[3]
  MIC: > 16 µg/mL
S. aureus ATCC 29213; [6]
  MIC: > 16 µg/mL
S. aureus ATCC 29213; [7]
  MIC: 0.5 µg/mL (≈ 0.309 µM)
S. aureus ATCC 29213; [8]
  MIC: 0.5 µg/mL (≈ 0.309 µM)
[4]; [9]
  MIC: > 16 µg/mL
[4]; [10]
  MIC: 0.25 µg/mL (≈ 0.154 µM)
[5]
  MIC: > 16 µg/mL

## C[C@H]1COc2c(N3CCN(C)CC3)c(F)cc3c(=O)c(C(=O)O)cn1c23 [levofloxacin]
E. faecalis ATCC 33186
  MIC: 2 µg/mL (≈ 5.53 µM)
E. coli ATCC 25922; ATCC25922, 2.5% v/v BPS, read-out: MIC, CLSI: +BPS
  MIC: 0.03 µg/mL (≈ 0.083 µM)
E. coli ATCC 25922; ATCC25922, 2.5% v/v BPS, read-out: MIC, Resazurin: +BPS
  MIC: 0.03 µg/mL (≈ 0.083 µM)
E. coli ATCC 25922; ATCC25922, no BPS, read-out: MIC, CLSI
  MIC: 0.015 µg/mL (≈ 0.0415 µM)
E. coli ATCC 25922; ATCC25922, no BPS, read-out: MIC, Resazurin
  MIC: 0.015 µg/mL (≈ 0.0415 µM)
S. aureus ATCC 29213; ATCC29213, 2.5% v/v BPS, read-out: MIC, CLSI: +BPS
  MIC: 0.12 µg/mL (≈ 0.332 µM)
S. aureus ATCC 29213; [6]
  MIC: 0.12 µg/mL (≈ 0.332 µM)
S. aureus ATCC 29213; [7]
  MIC: 0.25 µg/mL (≈ 0.692 µM)
S. aureus ATCC 29213; [8]
  MIC: 0.25 µg/mL (≈ 0.692 µM)
[4]; 2.5% v/v BPS, read-out: MIC, CLSI: +BPS
  MIC: 0.25 µg/mL (≈ 0.692 µM)
[4]; [9]
  MIC: 0.25 µg/mL (≈ 0.692 µM)
[4]; no BPS, read-out: MIC, CLSI
  MIC: 0.25 µg/mL (≈ 0.692 µM)
[4]; [10]
  MIC: 0.25 µg/mL (≈ 0.692 µM)
